The experiment concerns the target T1, LPA1 (Homo sapiens, UniProt Q92633).
T1 construct: expressed in transfected cells
Briefly: LPA receptor-mediated Ca2+ mobilization assay, LPA1. Particulars: for EC50: agonist, Ca2+ mobilization; for inhibition of LPA1 Ca2+ response: 10 μM, ~EC75 LPA 18:1; for LPA1 Imax (%): inhibition by 10 μM compound of ~EC75 LPA 18:1 Ca2+ response. In kind it is cell-based. On the procedure:
Similarity searches were performed separately using each fingerprint to quantitate similarity. Hits meeting the 80% similarity threshold from each search were ranked based on the Tanimoto coefficient measure of similarity to a target molecule NSC12404, and the top 75 unique hits from each fingerprint search were selected for further analysis. The 225 compounds selected for further analysis were clustered based on Tanimoto coefficients calculated using Molecular ACCess System-key fingerprints (MACCS keys) and evaluated using the diversity subset function implemented in MOE. This selected a diverse subset of 27 compounds for biological evaluation by choosing the middle compounds in each cluster. These 27 compounds were tested in Ca^2+ mobilization assays at a concentration of 10 μM using stable cell lines individually expressing LPA2 and also in vector-transfected control cells. Hits activating LPA2 were further tested using cells expressing the other established and putative LPA GPCRs. Experimental testing of the selected compounds identified the three new selective LPA2 agonists: GRI977143, H2L5547924, and H2L5828102. […] They arbitrarily selected GRI977143 for further characterization in cell-based assays.
J Biol Chem (2009) 284(25): 17304-17319). […] The cells were loaded with Fura-2-acetoxymethyl esther (Fura-2/AM) in Krebs buffer containing 0.01% pluronic acid for 30 min and rinsed with Krebs buffer before measuring Ca^2+ mobilization. The ratio of peak emissions at 510 nm after 2 min of ligand addition was determined for excitation wavelengths of 340 nm/380 nm. All samples were run in quadruplicate. […] The half maximally effective concentration (EC50), and inhibitory constant (Ki) values were calculated by fitting a sigmoid function to dose-response data points using KaleidaGraph software (version 4.1, Synergy Software; […]).
Mouse embryonic fibroblast (MEF) cells were isolated from E13.5 LPA1&2 double knockout (DKO) embryos. MEFs were transduced with empty vector or LPA2-containing lentiviruses and selected with 1.5 μg/ml puromycin. Cells were maintained in Dulbecco's modified Eagle medium (DMEM) supplemented with 10% (V/V) fetal bovine serum (FBS), 2 mM L-glutamine, 100 U/mL penicillin, and 100 μg/mL streptomycin. Serum-free medium contained 0.1% (W/V) BSA in DMEM. The rat intestinal epithelial cell line 6 (IEC-6) was obtained from the American Type Culture Collection (Rockville, Md.) at passage 13; passages 16-21 were used in all experiments. IEC-6 cells were maintained in a humidified 37° C. incubator in an atmosphere of 90% air and 10% CO2. Growth medium consisted of DMEM supplemented with 5% heat inactivated FBS, 10 μg/mL insulin, and 50 μg/mL gentamycin. The composition of the serum-starvation medium was the same as that of the full growth medium except that it contained no FBS. The McArdle rat hepatoma cell line (RH7777) stably expressing LPA2 receptors was a gift from Dr. Fumikazu Okajima (Gunma University, Maebashi, Japan). RH7777 cells stably expressing LPA1 or LPA3 receptors were generated in-house and had been characterized earlier. Wild type and LPA receptor (LPAR) stably transfected RH7777 cells were grown in DMEM supplemented with 10% FBS and 2 mM L-glutamine in the presence of 250 μg/ml G418. Chinese hamster ovary (CHO) cells stably expressing either vector or LPA4 receptor were a kind gift from Dr. Takao Shimizu (Tokyo University; Tokyo, Japan). Cells were cultured in Ham's F12 medium containing 10% FBS, 2 mM L-glutamine, and 350 μg/ml G418. Rat neuroblastoma cells (B103) were transduced with the lentivirus harboring wild type of FLAG-LPA5 and selected with puromycin to establish the stable cell lines. The stable cells were maintained in DMEM supplemented with 10% FBS and 0.4 μg/ml puromycin. GPR87- and P2Y10-expressing CHO cells and vector-transfected control cells were a gift from Dr. Norihisha Fujita (Ritsumeikan University; Shiga, Japan). […]
For orientation: Calcium assays in cells follow changes in intracellular calcium, usually with a dye or a luminescent sensor.

Some results are limits rather than exact numbers.

For orientation: EC50 means the midpoint of the concentration-response curve.

T1 sequence (Q92633 whole entry, species assumed): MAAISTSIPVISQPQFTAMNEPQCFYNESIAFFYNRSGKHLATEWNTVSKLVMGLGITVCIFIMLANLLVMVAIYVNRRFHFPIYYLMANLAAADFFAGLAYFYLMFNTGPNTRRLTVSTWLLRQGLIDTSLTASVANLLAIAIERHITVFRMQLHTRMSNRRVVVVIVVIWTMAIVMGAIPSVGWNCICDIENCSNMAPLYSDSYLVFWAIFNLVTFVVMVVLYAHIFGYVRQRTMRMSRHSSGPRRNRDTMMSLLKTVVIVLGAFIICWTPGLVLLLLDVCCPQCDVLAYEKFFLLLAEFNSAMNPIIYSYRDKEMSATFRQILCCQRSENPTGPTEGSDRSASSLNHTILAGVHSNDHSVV

As for octadecenyl thiophosphate [OTP], the EC50 stood at 0.651 µM. On to `O=C(O)c1cc(Cl)c(Cl)cc1C(=O)Nc1ccc2c(c1)C(=O)c1ccccc1-2` [Compound H2L5547924], for which the “inhibition of LPA1 Ca2+ response” value is given as “partially inhibited” and the “LPA1 Imax (%)” value came out at 21%. With `O=C(O)c1ccccc1C(=O)Nc1ccc2c(c1)C(=O)c1ccccc1C2=O` [Compound H2L5828102], the “inhibition of LPA1 Ca2+ response” value is recorded as “partially inhibited” and the “LPA1 Imax (%)” value was determined as 29%. As to `O=C(O)c1ccccc1C(=O)Nc1ccc2c(c1)C(=O)c1ccccc1-2` [NSC12404], the EC50 was more than 10 µM. Still for that read-out and setting: next, `CCCCCCCC/C=C\CCCCCCCC(=O)OC[C@@H](O)COP(=O)(O)O` [LPA 18:1, Lysophosphatidic acid (18:1)]: 0.13 µM.

The values above are taken from patent publication US9056835B2, “LPA2 receptor-specific benzoic acid derivatives” (University of Tennessee Research Foundation, priority 2012, dated 2015).
